Source: ChEMBL document CHEMBL1671627, “Increasing trends in antimicrobial resistance among clinically important anaerobes and Bacteroides fragilis isolates causing nosocomial infections: emerging resistance to carbapenems” (2008)
Values after ≈ are worked out from the molar mass of the structure shown.

Tests used:
[1] = tested on: Bacteroides fragilis; experiment: Antibacterial activity against Bacteroides fragilis assessed as susceptible isolates by CLSI agar dilution method; format: functional
[2] = tested on: Bacteroides fragilis; experiment: Antibacterial activity against Bacteroides fragilis assessed as resistant isolates by CLSI agar dilution method; format: functional
[3] = tested on: Bacteroides thetaiotaomicron; experiment: Antibacterial activity against beta-lactamase producing Bacteroides thetaiotaomicron assessed as susceptible isolates by CLSI agar dilution method; format: functional
[4] = tested on: Bacteroides thetaiotaomicron; experiment: Antibacterial activity against beta-lactamase producing Bacteroides thetaiotaomicron assessed as resistant isolates by CLSI agar dilution method; format: functional
[5] = tested on: Phocaeicola vulgatus; experiment: Antibacterial activity against beta-lactamase producing Bacteroides vulgatus by CLSI agar dilution method; format: functional
[6] = tested on: Phocaeicola vulgatus; experiment: Antibacterial activity against beta-lactamase producing Bacteroides vulgatus assessed as susceptible isolates by CLSI agar dilution method; format: functional
[7] = tested on: Phocaeicola vulgatus; experiment: Antibacterial activity against beta-lactamase producing Bacteroides vulgatus assessed as resistant isolates by CLSI agar dilution method; format: functional
[8] = tested on: Bacteroides uniformis; experiment: Antibacterial activity against beta-lactamase producing Bacteroides uniformis by CLSI agar dilution method; format: functional
[9] = tested on: Bacteroides uniformis; experiment: Antibacterial activity against beta-lactamase producing Bacteroides uniformis assessed as susceptible isolates by CLSI agar dilution method; format: functional
[10] = tested on: Bacteroides uniformis; experiment: Antibacterial activity against beta-lactamase producing Bacteroides uniformis assessed as resistant isolates by CLSI agar dilution method; format: functional
[11] = tested on: Bacteroides caccae; experiment: Antibacterial activity against beta-lactamase producing Bacteroides caccae by CLSI agar dilution method; format: functional
[12] = tested on: Bacteroides caccae; experiment: Antibacterial activity against beta-lactamase producing Bacteroides caccae assessed as susceptible isolates by CLSI agar dilution method; format: functional
[13] = tested on: Bacteroides caccae; experiment: Antibacterial activity against beta-lactamase producing Bacteroides caccae assessed as resistant isolates by CLSI agar dilution method; format: functional
[14] = tested on: Fusobacterium varium; experiment: Antibacterial activity against Fusobacterium varium by CLSI agar dilution method; format: functional
[15] = tested on: Fusobacterium nucleatum; experiment: Antibacterial activity against Fusobacterium nucleatum by CLSI agar dilution method; format: functional
[16] = tested on: Fusobacterium mortiferum; experiment: Antibacterial activity against Fusobacterium mortiferum by CLSI agar dilution method; format: functional
[17] = tested on: Fusobacterium necrophorum; experiment: Antibacterial activity against Fusobacterium necrophorum by CLSI agar dilution method; format: functional
[18] = tested on: Fusobacterium varium; experiment: Antibacterial activity against Fusobacterium varium assessed as susceptible isolates by CLSI agar dilution method; format: functional
[19] = tested on: Fusobacterium nucleatum; experiment: Antibacterial activity against Fusobacterium nucleatum assessed as susceptible isolates by CLSI agar dilution method; format: functional
[20] = tested on: Fusobacterium mortiferum; experiment: Antibacterial activity against Fusobacterium mortiferum assessed as susceptible isolates by CLSI agar dilution method; format: functional
[21] = tested on: Fusobacterium necrophorum; experiment: Antibacterial activity against Fusobacterium necrophorum assessed as susceptible isolates by CLSI agar dilution method; format: functional
[22] = tested on: Fusobacterium varium; experiment: Antibacterial activity against Fusobacterium varium assessed as resistant isolates by CLSI agar dilution method; format: functional
[23] = tested on: Fusobacterium nucleatum; experiment: Antibacterial activity against Fusobacterium nucleatum assessed as resistant isolates by CLSI agar dilution method; format: functional
[24] = tested on: Fusobacterium mortiferum; experiment: Antibacterial activity against Fusobacterium mortiferum assessed as resistant isolates by CLSI agar dilution method; format: functional
[25] = tested on: Fusobacterium necrophorum; experiment: Antibacterial activity against Fusobacterium necrophorum assessed as resistant isolates by CLSI agar dilution method; format: functional
[26] = tested on: Prevotella buccae; experiment: Antibacterial activity against Prevotella buccae by CLSI agar dilution method; format: functional; settings: Segatella buccae
[27] = tested on: Prevotella bivia; experiment: Antibacterial activity against Prevotella bivia by CLSI agar dilution method; format: functional
[28] = tested on: Prevotella intermedia; experiment: Antibacterial activity against Prevotella intermedia by CLSI agar dilution method; format: functional
[29] = tested on: Prevotella melaninogenica; experiment: Antibacterial activity against Prevotella melaninogenica by CLSI agar dilution method; format: functional
[30] = tested on: Prevotella buccae; experiment: Antibacterial activity against Prevotella buccae assessed as susceptible isolates by CLSI agar dilution method; format: functional, Segatella buccae
[31] = tested on: Prevotella bivia; experiment: Antibacterial activity against Prevotella bivia assessed as susceptible isolates by CLSI agar dilution method; format: functional
[32] = tested on: Prevotella intermedia; experiment: Antibacterial activity against Prevotella intermedia assessed as susceptible isolates by CLSI agar dilution method; format: functional
[33] = tested on: Prevotella melaninogenica; experiment: Antibacterial activity against Prevotella melaninogenica assessed as susceptible isolates by CLSI agar dilution method; format: functional
[34] = tested on: Prevotella buccae; experiment: Antibacterial activity against Prevotella buccae assessed as resistant isolates by CLSI agar dilution method; format: functional, Segatella buccae
[35] = tested on: Prevotella bivia; experiment: Antibacterial activity against Prevotella bivia assessed as resistant isolates by CLSI agar dilution method; format: functional
[36] = tested on: Prevotella intermedia; experiment: Antibacterial activity against Prevotella intermedia assessed as resistant isolates by CLSI agar dilution method; format: functional
[37] = tested on: Prevotella melaninogenica; experiment: Antibacterial activity against Prevotella melaninogenica assessed as resistant isolates by CLSI agar dilution method; format: functional
[38] = tested on: Veillonella parvula; experiment: Antibacterial activity against Veillonella parvula by CLSI agar dilution method; format: functional
[39] = tested on: Clostridium perfringens; experiment: microbe, parasite or virus in culture; format: functional
[40] = tested on: Clostridium paraputrificum; experiment: Antibacterial activity against beta-lactamase producing Clostridium paraputrificum by CLSI agar dilution method; format: functional
[41] = tested on: Clostridium septicum; experiment: Antibacterial activity against beta-lactamase producing Clostridium septicum by CLSI agar dilution method; format: functional
[42] = tested on: Clostridium tertium; experiment: Antibacterial activity against beta-lactamase producing Clostridium tertium by CLSI agar dilution method; format: functional
[43] = tested on: Clostridium paraputrificum; experiment: Antibacterial activity against beta-lactamase producing Clostridium paraputrificum assessed as susceptible isolates by CLSI agar dilution method; format: functional
[44] = tested on: Clostridium septicum; experiment: Antibacterial activity against beta-lactamase producing Clostridium septicum assessed as susceptible isolates by CLSI agar dilution method; format: functional
[45] = tested on: Clostridium tertium; experiment: Antibacterial activity against beta-lactamase producing Clostridium tertium assessed as susceptible isolates by CLSI agar dilution method; format: functional
[46] = tested on: Bacteroides fragilis; experiment: Antibacterial activity against Bacteroides fragilis by CLSI agar dilution method; format: functional
[47] = tested on: Bacteroides thetaiotaomicron; experiment: Antibacterial activity against beta-lactamase producing Bacteroides thetaiotaomicron by CLSI agar dilution method; format: functional
[48] = tested on: Clostridium paraputrificum; experiment: Antibacterial activity against beta-lactamase producing Clostridium paraputrificum assessed as resistant isolates by CLSI agar dilution method; format: functional
[49] = tested on: Clostridium septicum; experiment: Antibacterial activity against beta-lactamase producing Clostridium septicum assessed as resistant isolates by CLSI agar dilution method; format: functional
[50] = tested on: Clostridium tertium; experiment: Antibacterial activity against beta-lactamase producing Clostridium tertium assessed as resistant isolates by CLSI agar dilution method; format: functional
[51] = tested on: Peptostreptococcus anaerobius; experiment: Antibacterial activity against beta-lactamase producing Peptostreptococcus anaerobius by CLSI agar dilution method; format: functional
[52] = tested on: Peptostreptococcus anaerobius; experiment: Antibacterial activity against beta-lactamase producing Peptostreptococcus anaerobius assessed as susceptible isolates by CLSI agar dilution method; format: functional
[53] = tested on: Peptostreptococcus anaerobius; experiment: Antibacterial activity against beta-lactamase producing Peptostreptococcus anaerobius assessed as resistant isolates by CLSI agar dilution method; format: functional
[54] = tested on: Parvimonas micra; experiment: Antibacterial activity against beta-lactamase producing Micromonas micros by CLSI agar dilution method; format: functional
[55] = tested on: Parvimonas micra; experiment: Antibacterial activity against beta-lactamase producing Micromonas micros assessed as susceptible isolates by CLSI agar dilution method; format: functional
[56] = tested on: Parvimonas micra; experiment: Antibacterial activity against beta-lactamase producing Micromonas micros assessed as resistant isolates by CLSI agar dilution method; format: functional
[57] = tested on: Peptoniphilus asaccharolyticus; experiment: Antibacterial activity against beta-lactamase producing Peptoniphilus asaccharolyticus by CLSI agar dilution method; format: functional
[58] = tested on: Peptoniphilus asaccharolyticus; experiment: Antibacterial activity against beta-lactamase producing Peptoniphilus asaccharolyticus assessed as susceptible isolates by CLSI agar dilution method; format: functional
[59] = tested on: Peptoniphilus asaccharolyticus; experiment: Antibacterial activity against beta-lactamase producing Peptoniphilus asaccharolyticus assessed as resistant isolates by CLSI agar dilution method; format: functional
[60] = tested on: Finegoldia magna; experiment: Antibacterial activity against beta-lactamase producing Finegoldia magna by CLSI agar dilution method; format: functional
[61] = tested on: Finegoldia magna; experiment: Antibacterial activity against beta-lactamase producing Finegoldia magna assessed as susceptible isolates by CLSI agar dilution method; format: functional
[62] = tested on: Finegoldia magna; experiment: Antibacterial activity against beta-lactamase producing Finegoldia magna assessed as resistant isolates by CLSI agar dilution method; format: functional

SMILES: C[C@@H](O)[C@H]1C(=O)N2C(C(=O)O)=C(S[C@@H]3CN[C@H](C(=O)N(C)C)C3)[C@H](C)[C@H]12 [MEROPENEM]
- Activity [1]: 88%
- Activity [2]: 5%
- Activity [3]: 97%
- Activity [4]: 0%
- MIC50 [5]: 0.5 µg/mL (≈ 1.3 µM)
- MIC90 [5]: 2 µg/mL (≈ 5.22 µM)
- Activity [6]: 96%
- Activity [7]: 4%
- MIC50 [8]: 0.5 µg/mL (≈ 1.3 µM)
- MIC90 [8]: 2 µg/mL (≈ 5.22 µM)
- Activity [9]: 96%
- Activity [10]: 4%
- MIC50 [11]: 0.5 µg/mL (≈ 1.3 µM)
- MIC90 [11]: 2 µg/mL (≈ 5.22 µM)
- Activity [12]: 96%
- Activity [13]: 4%
- MIC50 [14]: 0.06 µg/mL (≈ 0.156 µM)
- MIC90 [14]: 0.12 µg/mL (≈ 0.313 µM)
- MIC50 [15]: 0.06 µg/mL (≈ 0.156 µM)
- MIC90 [15]: 0.12 µg/mL (≈ 0.313 µM)
- MIC50 [16]: 0.06 µg/mL (≈ 0.156 µM)
- MIC90 [16]: 0.12 µg/mL (≈ 0.313 µM)
- MIC50 [17]: 0.06 µg/mL (≈ 0.156 µM)
- MIC90 [17]: 0.12 µg/mL (≈ 0.313 µM)
- Activity [18]: 92%
- Activity [19]: 92%
- Activity [20]: 92%
- Activity [21]: 92%
- Activity [22]: 8%
- Activity [23]: 8%
- Activity [24]: 8%
- Activity [25]: 8%
- MIC50 [26]: 0.12 µg/mL (≈ 0.313 µM)
- MIC90 [26]: 0.25 µg/mL (≈ 0.652 µM)
- MIC50 [27]: 0.12 µg/mL (≈ 0.313 µM)
- MIC90 [27]: 0.25 µg/mL (≈ 0.652 µM)
- MIC50 [28]: 0.12 µg/mL (≈ 0.313 µM)
- MIC90 [28]: 0.25 µg/mL (≈ 0.652 µM)
- MIC50 [29]: 0.12 µg/mL (≈ 0.313 µM)
- MIC90 [29]: 0.25 µg/mL (≈ 0.652 µM)
- Activity [30]: 100%
- Activity [31]: 100%
- Activity [32]: 100%
- Activity [33]: 100%
- Activity [34]: 0%
- Activity [35]: 0%
- Activity [36]: 0%
- Activity [37]: 0%
- MIC [38]: 0.06 µg/mL (≈ 0.156 µM)
- MIC [39]: 0.03 µg/mL (≈ 0.0782 µM)
- MIC50 [39]: 0.03 µg/mL (≈ 0.0782 µM)
- MIC90 [39]: 2 µg/mL (≈ 5.22 µM)
- MIC [40]: 0.03 µg/mL (≈ 0.0782 µM)
- MIC50 [40]: 0.03 µg/mL (≈ 0.0782 µM)
- MIC90 [40]: 2 µg/mL (≈ 5.22 µM)
- MIC [41]: 0.03 µg/mL (≈ 0.0782 µM)
- MIC50 [41]: 0.03 µg/mL (≈ 0.0782 µM)
- MIC90 [41]: 2 µg/mL (≈ 5.22 µM)
- MIC [42]: 0.03 µg/mL (≈ 0.0782 µM)
- MIC50 [42]: 0.03 µg/mL (≈ 0.0782 µM)
- MIC90 [42]: 2 µg/mL (≈ 5.22 µM)
- Activity [43]: 100%
- Activity [44]: 100%
- Activity [45]: 100%
- MIC50 [46]: 0.28 µg/mL (≈ 0.73 µM)
- MIC90 [46]: 8 µg/mL (≈ 20.9 µM)
- MIC50 [47]: 0.25 µg/mL (≈ 0.652 µM)
- MIC90 [47]: 2 µg/mL (≈ 5.22 µM)
- Activity [48]: 0%
- Activity [49]: 0%
- Activity [50]: 0%
- MIC50 [51]: 0.06 µg/mL (≈ 0.156 µM)
- MIC90 [51]: 0.5 µg/mL (≈ 1.3 µM)
- Activity [52]: 100%
- Activity [53]: 0%
- MIC50 [54]: 0.06 µg/mL (≈ 0.156 µM)
- MIC90 [54]: 0.5 µg/mL (≈ 1.3 µM)
- Activity [55]: 100%
- Activity [56]: 0%
- MIC50 [57]: 0.06 µg/mL (≈ 0.156 µM)
- MIC90 [57]: 0.5 µg/mL (≈ 1.3 µM)
- Activity [58]: 100%
- Activity [59]: 0%
- MIC50 [60]: 0.06 µg/mL (≈ 0.156 µM)
- MIC90 [60]: 0.5 µg/mL (≈ 1.3 µM)
- Activity [61]: 100%
- Activity [62]: 0%
